Measured values as given in EP0938471B1, “THE PREPARATION AND USE OF ORTHO-SULFONAMIDO ARYL HYDROXAMIC ACIDS AS MATRIX METALLOPROTEINASE AND TACE INHIBITORS” (priority 1996, dated 1998).
Read-outs that look alike come from different tables or passages of the source.

Tests used:
Assay type in all cases: biochemical
MMP-9 = MMP-9 (Homo sapiens, UniProt P14780); experiment: MMP-9 inhibition (thiopeptide or fluorescent peptide substrate assay); conditions: for inhibition at 1 µM: read-out: MMP-9 % inhibition, footnote: 1µM; for IC50: read-out: MMP-9 IC50
Sequence of MMP-9 (P14780 94-707): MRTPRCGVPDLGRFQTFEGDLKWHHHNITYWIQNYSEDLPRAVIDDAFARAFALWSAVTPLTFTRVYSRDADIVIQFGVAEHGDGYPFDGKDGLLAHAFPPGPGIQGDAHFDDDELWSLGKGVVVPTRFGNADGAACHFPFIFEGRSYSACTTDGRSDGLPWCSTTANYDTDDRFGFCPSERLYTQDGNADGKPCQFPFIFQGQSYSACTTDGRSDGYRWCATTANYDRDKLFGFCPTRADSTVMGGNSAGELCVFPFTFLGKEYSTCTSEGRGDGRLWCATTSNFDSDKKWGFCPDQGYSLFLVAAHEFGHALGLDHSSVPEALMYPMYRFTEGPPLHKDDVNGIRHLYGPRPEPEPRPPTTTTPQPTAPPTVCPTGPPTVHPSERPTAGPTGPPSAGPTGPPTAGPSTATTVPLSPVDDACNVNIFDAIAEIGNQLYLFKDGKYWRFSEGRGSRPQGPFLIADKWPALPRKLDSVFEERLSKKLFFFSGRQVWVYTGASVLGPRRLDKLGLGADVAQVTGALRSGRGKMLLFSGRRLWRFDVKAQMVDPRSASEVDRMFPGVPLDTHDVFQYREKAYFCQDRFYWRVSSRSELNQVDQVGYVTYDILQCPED

TACE = TACE (Homo sapiens, UniProt P78536); experiment: TACE inhibition (fluorescent peptidyl substrate); conditions: for inhibition at 1 µM: at 1µM concentration
Sequence of TACE (P78536 215-824): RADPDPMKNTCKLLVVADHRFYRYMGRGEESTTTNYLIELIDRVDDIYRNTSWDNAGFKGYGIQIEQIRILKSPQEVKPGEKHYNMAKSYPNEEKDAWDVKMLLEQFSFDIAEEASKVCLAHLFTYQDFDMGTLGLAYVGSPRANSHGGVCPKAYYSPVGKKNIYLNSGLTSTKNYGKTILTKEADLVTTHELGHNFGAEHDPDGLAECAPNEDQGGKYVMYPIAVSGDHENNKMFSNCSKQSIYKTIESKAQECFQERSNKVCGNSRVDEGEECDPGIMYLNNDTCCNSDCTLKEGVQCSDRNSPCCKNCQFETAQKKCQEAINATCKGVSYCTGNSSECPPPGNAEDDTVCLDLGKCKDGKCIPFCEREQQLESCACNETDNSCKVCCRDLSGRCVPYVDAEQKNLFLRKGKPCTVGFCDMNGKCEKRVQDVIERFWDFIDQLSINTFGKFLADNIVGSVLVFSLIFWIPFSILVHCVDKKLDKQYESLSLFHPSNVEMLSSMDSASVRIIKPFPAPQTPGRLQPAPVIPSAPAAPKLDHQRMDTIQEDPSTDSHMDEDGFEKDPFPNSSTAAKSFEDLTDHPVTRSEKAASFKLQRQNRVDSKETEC
Experimental: Using 96-well black microtiter plates, each well receives a solution composed of 10 µL TACE (Immunex, final concentration 1µg/mL), 70µL Tris buffer, pH 7.4 containing 10% glycerol (final concentration 10 mM), and 10 µL of test compound solution in DMSO (final concentration 1µM, DMSO concentration <1%) and incubated for 10 minutes at room temperature.
The reaction is read (excitation 340 nm, emission 420 nm) for 10 min. and the increase in fluorescence over time is plotted as a linear line. The slope of the line is calculated and represents the reaction rate.
The linearity of the reaction rate is confirmed (r^2 >0.85). The mean (x±sem) of the control rate is calculated and compared for statistical significance (p<0.05) with drug-treated rates using Dunnett's multiple comparison test.

MMP-13 = MMP-13 (Homo sapiens, UniProt P45452); experiment: MMP-13 inhibition (thiopeptide or fluorescent peptide substrate assay); conditions: for inhibition at 1 µM: read-out: MMP-13 % inhibition, footnote: 1µM
MMP-1 = target: T1, MMP-1 (Homo sapiens, UniProt P03956); experiment: MMP-1 inhibition (thiopeptide or fluorescent peptide substrate assay); conditions: for inhibition at 1 µM: read-out: MMP-1 % inhibition, footnote: 1µM; for IC50: read-out: MMP-1 IC50; for MMP-1 % inhibition: concentration given as (10), unit not given
T1 sequence (P03956 100-469): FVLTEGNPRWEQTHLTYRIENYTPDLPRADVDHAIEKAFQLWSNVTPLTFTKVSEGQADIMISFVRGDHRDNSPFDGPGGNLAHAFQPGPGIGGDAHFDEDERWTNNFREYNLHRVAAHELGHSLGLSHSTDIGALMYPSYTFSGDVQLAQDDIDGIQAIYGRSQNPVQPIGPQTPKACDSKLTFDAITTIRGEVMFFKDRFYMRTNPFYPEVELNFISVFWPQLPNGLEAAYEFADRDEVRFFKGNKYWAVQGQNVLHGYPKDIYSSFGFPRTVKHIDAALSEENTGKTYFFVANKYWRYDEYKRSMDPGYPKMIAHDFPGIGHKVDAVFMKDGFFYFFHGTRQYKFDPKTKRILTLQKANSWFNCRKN

Compound	inhibition at 1 µM (MMP-9)	IC50 (TACE; read-out: TACE IC50)	inhibition at 1 µM (MMP-13)	inhibition at 1 µM (MMP-1)	IC50 (MMP-9)	IC50 (TACE)	IC50 (MMP-13)	IC50 (MMP-1)	IC50 (MMP-13; read-out: MMP-13 IC50)	inhibition at 1 µM (TACE)	MMP-1 % inhibition (MMP-1)
Cc1cc(Br)cc(C(=O)NO)c1N(Cc1ccccc1)S(=O)(=O)c1ccc(OCc2ccccc2)cc1 [Example 308]	45%	285 nM	36%	10%	–	–	–	–	–	–	–
COc1ccc(S(=O)(=O)N(C)c2c(CN3CCOCC3)cccc2C(=O)NO)cc1 [Example 309, N-Hydroxy-2-[(4-methoxy-benzenesulfonyl)-methyl-amino]-3-morpholin-4-ylmethyl-benzamide]	–	–	–	–	5 nM	174 nM	14 nM	608 nM	–	–	–
COc1ccc(S(=O)(=O)N(C)c2c(CN3CCCC3)cccc2C(=O)NO)cc1 [Example 310, N-Hydroxy-2-[(4-methoxy-benzenesulfonyl)-methyl-amino]-3-pyrrolidin-1-ylmethyl-benzamide]	–	154 nM	–	–	21 nM	–	–	4800 nM	101 nM	–	–
COc1ccc(S(=O)(=O)N(C)c2c(Cn3ccnc3)cccc2C(=O)NO)cc1 [Example 311, N-Hydroxy-3-imidazol-1-ylmethyl-2-[(4-methoxy-benzenesulfonyl)-methyl-amino]-benzamide]	–	–	–	–	10 nM	157 nM	43 nM	781 nM	–	–	–
COc1ccc(S(=O)(=O)N(C)c2c(CN3CCCC3)cc(Br)cc2C(=O)NO)cc1 [Example 314, 5-Bromo-N-hydroxy-2-[(4-methoxy-benzenesulfonyl)-methylamino]-3-pyrrolidin-1-ylmethyl-benzamide]	–	27 nM	–	–	8.4 nM	–	–	954 nM	13 nM	–	–
COc1ccc(S(=O)(=O)N(Cc2cccnc2)c2c(CN3CCCC3)cccc2C(=O)NO)cc1 [Example 320, N-Hydroxy-2-[(4-methoxy-benzenesulfonyl)-pyridin-3-ylmethyl-amino]-3-pyrrolidin-1-ylmethyl-benzamide]	–	142 nM	–	–	46 nM	–	–	2190 nM	150 nM	–	–
CCCCCCCCN(c1c(CN2CCN(C)CC2)cccc1C(=O)NO)S(=O)(=O)c1ccc(OC)cc1 [Example 325, N-Hydroxy-2-[(4-methoxy-benzenesulfonyl)-octyl-amino]-3-(4-methyl-piperazin-1-ylmethyl)-benzamide]	49%	1640 nM	60%	15%	2.4 nM	–	–	–	1.9 nM	47%	–
COc1ccc(S(=O)(=O)N(Cc2ccsc2)c2c(CN3CCN(C)CC3)cccc2C(=O)NO)cc1 [Example 328, N-Hydroxy-2-[(4-methoxy-benzenesulfonyl)-thiophen-3-ylmethyl-amino]-3-(4-methyl-piperazin-1-ylmethyl)-benzamide]	–	263 nM	–	–	4.9 nM	–	–	326 nM	13 nM	–	–
COc1ccc(S(=O)(=O)N(Cc2ccccc2)c2c(CN3CCN(C)CC3)cccc2C(=O)NO)cc1 [Example 329, N-Hydroxy-2-[[(4-methoxyphenyl)sulfonyl](phenylmethyl)-amino]-3-[(4-methyl-1-piperazinyl)methyl]benzamide]	–	173 nM	–	–	6.1 nM	–	–	319 nM	23 nM	–	–
COc1ccc(S(=O)(=O)N(Cc2cccnc2)c2c(COC3CCCCO3)cccc2C(=O)NO)cc1 (centres unmarked) [Example 339, N-Hydroxy-2-[(4-methoxy-benzenesulfonyl)-pyridin-3-ylmethyl-amino]-3-(tetrahydro-pyran-2-yloxymethyl)-benzamide]	–	564 nM	–	–	5.2 nM	–	–	216 nM	5.7 nM	–	–
COc1ccc(S(=O)(=O)N(Cc2cccnc2)c2c(CO)cccc2C(=O)NO)cc1 [Example 340, N-Hydroxy-3-hydroxymethyl-2-[(4-methoxy-benzenesulfonyl)-pyridin-3-ylmethyl-amino]-benzamide]	–	110 nM	–	–	11 nM	–	–	522 nM	30 nM	–	–
COc1ccc(S(=O)(=O)N(Cc2ccccc2)c2c(OCCO[Si](C)(C)C(C)(C)C)cccc2C(=O)NO)cc1 [Example 344, 2-[Benzyl-(4-methoxy-benzenesulfonyl)-amino]-3-[2-(tert-butyl-dimethyl-silanyloxy)-ethoxy]-N-hydroxy-benzamide]	–	529 nM	–	–	69 nM	–	–	1170 nM	320 nM	–	–
COc1ccc(S(=O)(=O)N(Cc2ccccc2)c2c(OCCO)cccc2C(=O)NO)cc1 [Example 345, 2-[Benzyl-(4-methoxy-benzenesulfonyl)-amino]-N-hydroxy-3-(2-hydroxy-ethoxy)-benzamide]	–	523 nM	–	–	31 nM	–	–	1160 nM	134 nM	–	–
COc1ccc(S(=O)(=O)N(C)c2c(CCC(=O)NO)cc(Br)cc2C(=O)NO)cc1 [Example 349, 5-Bromo-N-hydroxy-3-[2-(hydroxycarbamoyl)-ethyl]-2-[(4-methoxy-benzenesulfonyl)-methyl-amino]-benzamide]	–	32 nM	–	–	8 nM	–	–	396 nM	9 nM	–	–
COc1ccc(S(=O)(=O)N(C)c2c(CCC(=O)NO)cccc2C(=O)NO)cc1 [Example 350]	–	373 nM	–	–	5 nM	–	–	450 nM	21 nM	–	–
COc1ccc(S(=O)(=O)N(C)c2c(C)cc(C#Cc3ccc(-c4ccccc4)cc3)cc2C(=O)NO)cc1 [Example 353, 5-Biphenyl-4-ylethynyl-N-hydroxy-2-[(4-methoxy-benzenesulfonyl)-methyl-amino]-3-methyl-benzamide]	–	780 nM	–	23%	61 nM	–	–	–	141 nM	–	–
COc1ccc(S(=O)(=O)N(C)c2c(C)cc(CCc3ccc(-c4ccccc4)cc3)cc2C(=O)NO)cc1 [Example 355, 5-(2-Biphenyl-4-yl-ethyl)-N-hydroxy-2-[(4-methoxy-benzenesulfonyl)-methyl-amino]-3-methyl-benzamide]	–	288 nM	–	–	28 nM	–	–	701 nM	20 nM	–	–
CCCCCCCCCCC#Cc1cc(C)c(N(C)S(=O)(=O)c2ccc(OC)cc2)c(C(=O)NO)c1 [Example 358, 5-Dodec-1-ynyl-N-hydroxy-2-[(4-methoxy-benzenesulfonyl)-methyl-amino]-3-methyl-benzamide]	–	1050 nM	–	–	101 nM	–	–	–	107 nM	–	25%(10)
CCCCCCCCCCCCc1cc(C)c(N(C)S(=O)(=O)c2ccc(OC)cc2)c(C(=O)NO)c1 [Example 360, 5-Dodecyl-N-hydroxy-2-[(4-methoxy-benzenesulfonyl)-methyl-amino]-3-methyl-benzamide]	–	1400 nM	–	–	525 nM	–	–	–	1260 nM	–	14%(10)
COCc1cccc(C(=O)NO)c1N(Cc1cccnc1)S(=O)(=O)c1ccc(OC)cc1 [Example 363, N-Hydroxy-2-[(4-methoxy-benzenesulfonyl)-pyridin-3-ylmethyl-amino]-3-methoxymethyl-benzamide]	–	137 nM	–	–	20 nM	–	–	449 nM	54 nM	–	–
COc1ccc(S(=O)(=O)N(Cc2cccnc2)c2c(C(=O)NO)cccc2C(=O)OC(C)(C)C)cc1 [Example 367, N-Hydroxy-2-[(4-methoxy-benzenesulfonyl)-pyridin-3-ylmethyl-amino]-isophthalamic acid tert-butyl ester]	–	2700 nM	–	–	12 nM	–	–	597 nM	13 nM	–	–
COC(=O)c1cccc(C(=O)NO)c1N(C)S(=O)(=O)c1ccc(OC)cc1 [Example 373, N-Hydroxy-2-[(4-methoxy-benzenesulfonyl)-methyl-amino]-isophthalamic acid methyl ester]	–	539 nM	–	–	26 nM	–	–	1280 nM	59 nM	–	–
COc1ccc(S(=O)(=O)N(Cc2cccnc2)c2c(C(=O)O)cccc2C(=O)NO)cc1 [Example 374, N-Hydroxy-2-[(4-methoxy-benzenesulfonyl)-pyridin-3-ylmethyl-amino]-isophthalamic acid]	36%	–	17%	–	–	–	–	–	–	29%	56%(10)
COc1ccc(S(=O)(=O)N(Cc2ccccn2)c2c(C)cccc2C(=O)NO)cc1 [Example 375, N-Hydroxy-2-[(4-methoxy-benzenesulfonyl)-pyridin-2-ylmethyl-amino]-3-methyl-benzamide]	–	356 nM	–	–	7.1 nM	–	–	329 nM	18 nM	–	–
COc1ccc(S(=O)(=O)N(Cc2ccncc2)c2c(C)cccc2C(=O)NO)cc1 [Example 376, N-Hydroxy-2-[(4-methoxy-benzenesulfonyl)-pyridin-4-ylmethyl-amino]-3-methyl-benzamide]	–	645 nM	–	–	8.4 nM	–	–	391 nM	18 nM	–	–
CCN(CC)Cc1ccc(CN(c2c(C)cccc2C(=O)NO)S(=O)(=O)c2ccc(OC)cc2)cc1 [Example 377, 2-[(4-Diethylaminomethyl-benzyl)-(4-methoxy-benzenesulfonyl)-amino]-N-hydroxy-3-methyl-benzamide]	–	258 nM	–	–	4.7 nM	–	–	123 nM	15 nM	–	–
